{"source": "patent US6166290A", "about": "“Glutathione-S-conjugate transport in plants” (The Trustees of the University of Pennsylvania, priority 1997, dated 2000)", "key": {"[1]": {"target": "T1, YCF1 (vacuolar membrane vesicles purified from DTY165 cells) (Saccharomyces cerevisiae, UniProt P39109)", "T1 construct": "endogenous in cells; host or cells: S. cerevisiae DTY165 (wild type YCF1), vacuolar membrane vesicles", "T1 sequence (P39109 whole entry)": "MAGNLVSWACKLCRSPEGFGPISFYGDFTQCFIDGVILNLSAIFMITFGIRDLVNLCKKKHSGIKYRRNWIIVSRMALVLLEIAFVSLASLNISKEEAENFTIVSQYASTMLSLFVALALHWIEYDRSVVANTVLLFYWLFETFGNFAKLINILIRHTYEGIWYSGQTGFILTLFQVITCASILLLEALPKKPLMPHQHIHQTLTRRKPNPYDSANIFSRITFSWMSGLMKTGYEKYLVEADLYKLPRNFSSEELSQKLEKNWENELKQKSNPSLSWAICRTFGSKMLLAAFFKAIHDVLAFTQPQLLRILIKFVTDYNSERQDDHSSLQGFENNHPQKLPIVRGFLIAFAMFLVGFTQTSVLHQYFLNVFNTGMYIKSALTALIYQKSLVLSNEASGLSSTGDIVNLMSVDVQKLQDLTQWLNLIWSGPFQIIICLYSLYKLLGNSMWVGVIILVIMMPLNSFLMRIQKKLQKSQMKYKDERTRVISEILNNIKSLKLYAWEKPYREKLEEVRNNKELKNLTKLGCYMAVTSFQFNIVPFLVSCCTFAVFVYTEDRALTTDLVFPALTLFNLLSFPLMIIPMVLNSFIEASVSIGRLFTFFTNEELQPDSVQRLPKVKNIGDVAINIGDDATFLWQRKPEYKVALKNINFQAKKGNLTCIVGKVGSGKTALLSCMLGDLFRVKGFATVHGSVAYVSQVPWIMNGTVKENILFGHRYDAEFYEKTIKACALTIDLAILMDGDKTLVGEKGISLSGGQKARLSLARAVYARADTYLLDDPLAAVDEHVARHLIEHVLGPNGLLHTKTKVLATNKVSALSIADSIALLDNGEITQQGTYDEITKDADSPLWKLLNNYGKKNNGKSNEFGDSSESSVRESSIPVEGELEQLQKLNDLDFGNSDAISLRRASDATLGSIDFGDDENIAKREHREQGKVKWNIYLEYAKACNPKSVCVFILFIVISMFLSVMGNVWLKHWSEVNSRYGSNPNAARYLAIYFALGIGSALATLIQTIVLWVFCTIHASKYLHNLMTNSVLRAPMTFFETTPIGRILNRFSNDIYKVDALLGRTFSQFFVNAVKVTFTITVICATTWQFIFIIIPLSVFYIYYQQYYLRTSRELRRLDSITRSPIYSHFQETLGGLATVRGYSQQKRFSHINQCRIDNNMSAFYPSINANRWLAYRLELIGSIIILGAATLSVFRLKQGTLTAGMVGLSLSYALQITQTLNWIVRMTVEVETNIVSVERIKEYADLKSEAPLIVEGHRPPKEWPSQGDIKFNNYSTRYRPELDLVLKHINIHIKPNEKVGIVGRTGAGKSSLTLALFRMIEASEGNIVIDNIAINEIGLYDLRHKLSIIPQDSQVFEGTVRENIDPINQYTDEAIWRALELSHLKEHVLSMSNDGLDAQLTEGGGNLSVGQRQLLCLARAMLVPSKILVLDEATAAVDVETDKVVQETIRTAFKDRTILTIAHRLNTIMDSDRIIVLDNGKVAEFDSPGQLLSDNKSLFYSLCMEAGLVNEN", "experiment": "[3H]DNP-GS uptake by vacuolar membrane vesicles purified from DTY165 cells", "assay_type": "biochemical", "experimental": "(§1) For the routine preparation of vacuolar membrane vesicles, 15 ml of stationary phase cultures of DTY165 or DTY167 were diluted into 1-liter volumes of fresh YPD medium, grown for 24 hours at 30° C. to an OD600 nm of approximately 0.8 and collected by centrifugation. After washing with distilled water, the cells were converted to spheroplasts with Zymolyase 20T (ICN) (Kim et al., 1994, supra) and intact vacuoles were isolated by flotation centrifugation of spheroplast lysates on Ficoll 400 step gradients as described by Roberts et al. (1991, Methods. Enzymol. 194:644-661). Both the spheroplast lysis buffer and Ficoll gradients contained 2 mg/ml bovine serum albumin, 1 μg/ml aprotinin, 1 μg/ml leupeptin, 1 μg/ml pepstatin, and 1 mM PMSF to minimize proteolysis. The resulting vacuole fraction was vesiculated in 5 mM MgCl2, 25 mM KCl, 10 mM Tris-Mes (pH 6.9) containing 2 mg/ml bovine serum albumin, 1 μg/ml aprotinin, 1 μg/ml leupeptin, 1 μg/ml pepstatin, and 1 mM PMSF, pelleted by centrifugation at 37,000× g for 25 min, and resuspended in suspension medium (1.1 M glycerol, 2 mM dithiothreitol, 1 mM Tris-EGTA, 2 mg/ml bovine serum albumin, 1 μg/ml aprotinin, 1 μg/ml leupeptin, 1 μg/ml pepstatin, 1 mM PMSF, 5 mM Tris-Mes, pH 7.6) (Kim et al., 1995, J. Biol. Chem. 270:2630-2635).\n(§2) Unless otherwise indicated, [^3 H]DNP-GS uptake was measured at 25° C. in 200 μl reaction volumes containing 3 mM ATP, 3 mM MgSO4, 5 μM gramicidin-D, 10 mM creatine phosphate, 16 units/ml creatine kinase, 50 mM KC 1, 1 mg/ml bovine serum albumin, 400 mM sorbitol, 25 mM Tris-Mes (pH 8.0), and 66.2 μM [^3 H]DNP-GS (8.7 mCi/mmol) (Li et al., 1995, supra). […] Uptake was initiated by the addition of vacuolar membrane vesicles (10-15 μg of membrane protein), brief mixing of the samples on a vortex mixer and uptake was then allowed to proceed for 1-60 minutes. Uptake was terminated by the addition of 1 ml of ice-cold wash medium (400 mM sorbitol, 3 mM Tris-Mes, pH 8.0) and vacuum filtration of the suspension through prewetted Millipore HA cellulose nitrate membrane filters (pore diameter, 0.45 μm). The filters were rinsed twice with 1 ml of ice-cold wash medium and air-dried, and radioactivity was determined by liquid scintillation counting in BCS mixture (Amersham Corp.). Nonenergized [^3 H]DNP-GS uptake and extravesicular solution trapped on the filters were enumerated by the same procedure except that ATP and Mg^2 +were omitted from the uptake medium."}, "[2]": {"tested_on": "vacuolar membrane vesicles purified from DTY167 cells (ycf1Δ mutant)", "assay_type": "biochemical, Saccharomyces cerevisiae", "experimental": "as §1, §2"}, "[3]": {"target": "T1, YCF1 (vacuolar membrane vesicles purified from DTY165 cells)", "experiment": "biochemical", "assay_type": "biochemical", "experimental": "(§3) In experiments involving cadmium transport, dithiothreitol and EGTA were removed from the suspension medium to prevent the attenuation of YCF1-dependent Cd^2+ transport otherwise exerted by these compounds. Vesiculated vacuolar membranes were subjected to three cycles of 50-fold dilution into simplified suspension medium (1.1 M glycerol, 5 mM Tris-Mes, pH 8.0), centrifugation at 100,000× g for 35 minutes and resuspension in the same medium before use.\n(§4) Singly radiolabeled ^109 Cd.GSn and doubly radio-labeled ^109 Cd[^3 H].GS^n complexes were prepared by sequential gel-filtrationand anion-exchange chromatography of the reaction products generated by incubating 20 mM ^109 CdSO4 (78.4 mCi/mmol) with 40 mM GSH or 40 mM [^3 H]GSH (240 mCi/mmol) in 15 ml 10 mM phosphate buffer (pH 8.0) containing 150 mM KNO3 at 45° C. for 24 hours. For gel-filtration, 2 ml aliquots of the reaction mixture were applied to a column (40×1.5 cm ID) packed with water-equilibrated Sephadex G-1 5, eluted with deionized water and ^109 Cd and/or ^3 H in the fractions was measured by liquid scintillation counting. The fractions encompassed by each of the two ^109 Cd.GSn peaks identified were pooled, lyophilized and redissolved in 4 ml of loading buffer (5 mM Tris-Mes, pH 8.0). For anion-exchange chromatography, 0.5 ml aliquots of the resuspended lyophilizates from gel-filtration chromatography were applied to a Mono-Q HR5/5 column (Pharmacia) equilibrated with the same buffer. Elution was with a linear gradient of NaCl (0.5 ml/minute; 0-500 mM) dissolved in loading buffer. The individual fractions corresponding to the major peaks of ^109 Cd obtained from the Mono-Q column (one each for the peaks resolved by gel-filtration chromatography) were pooled, lyophilized and resuspended in 4 ml deionized water after liquid scintillation counting.\n(§5) MgATP-energized, uncoupler-insensitive ^109 Cd^2+ uptake by vacuolar membrane vesicles was measured at 25° C. in 200 μl reaction volumes containing 3 mM ATP, 3 mM MgSO4, 5 μM gramicidin-D, 10 mM creatine phosphate, 16 units/ml creatine kinase, 50 mM KCl, 400 mM sorbitol, 25 mM Tris-Mes (pH 8.0) and the indicated concentrations of ^109 CdSO4, GSH or ^109 Cd- and/or ^3 H-labeled purified Cd.GSn complexes as described herein except that the wash media contained 100 μM CdSO4 in addition to sorbitol (400 mM) and Tris-Mes (3 mM, pH 8.0)."}, "[4]": {"tested_on": "vacuolar membrane vesicles purified from DTY167 cells (ycf1Δ mutant)", "assay_type": "biochemical, Saccharomyces cerevisiae", "experimental": "as §3, §4, §5", "remark": "listed apart in the source"}, "[5]": {"tested_on": "vacuolar GS-X pump (vacuolar membrane vesicles, V. radiata hypocotyls)", "experiment": "GS-conjugate uptake by vacuolar membrane vesicles from etiolated hypocotyls of V. radiata", "assay_type": "biochemical, Vigna radiata", "settings": "65 μM", "experimental": "Values shown are means ±SE (n=3).\nVacuolar membrane vesicles were purified from etiolated hypocotyls of V. radiata cv.\nUnless otherwise indicated, [^3 H]medicarpin or [3H]medicarpin-GS uptake was measured at 25° C. in 200 μl reaction volumes containing 3 mM ATP, 3 mM MgSO4, 10 mM creatine phosphate, 16 U/ml creatine kinase, 50 mM KCl, 0.1% (w/v) BSA, 400 mM sorbitol and 25 mM Tris-Mes buffer, pH 8.0. Uptake was initiated by the addition of 12 μl membrane vesicles (30-40 μg protein) and brief mixing of the samples on a vortex mixer. Uptake was terminated by the addition of 1 ml ice-cold wash medium (400 mM sorbitol, 3 mM Tris-Mes, pH 8.0) and vacuum filtration of the suspension through prewetted HA cellulose nitrate filters (pore diameter 0.45 μm). The filters were rinsed twice with a 1 ml ice-cold wash medium, air-dried and radioactivity was determined by liquid scintillation counting."}, "[6]": {"settings": "5 μM gramicidin D, GSH, GSSG 1 mM, GS-conjugates 100 μM"}, "[7]": {"settings": "5 μM gramicidin D, GSH, GSSG 1 mM, GS-conjugates 100 μM, 10 min"}, "[8]": {"settings": "5 μM gramicidin D, read-out: I50 for MgATP-dependent, uncoupler-insensitive DNP-GS uptake"}, "[9]": {"settings": "vacuolar membrane vesicles, 10 min"}, "[10]": {"settings": "50 μM (as Cd), 5 μM gramicidin-D"}, "[11]": {"settings": "50 μM (as Cd), pretreated 1:4 with 2-ME, 60° C., 10 minutes"}}, "note": "Values joined by “and” are separate entries in the source; they are usually repeats but may differ in a detail not shown here. Equal values may be shown once. Read-outs that look alike come from different tables or passages of the source."}
{"smiles": "[N-]=[N+]=Nc1ccc(C(=O)CSC[C@H](NC(=O)CC[C@H](N)C(=O)O)C(=O)NCC(=O)O)cc1", "note": "[Azidophenacyl-GS]", "values": [{"measurement": "MgATP-dependent, uncoupler-insensitive DNP-GS uptake plus compound", "setting": "[1]; [6]", "result": "16.0 ± 1.4", "unit": "nmol/mg/10 minutes"}, {"measurement": "MgATP-dependent, uncoupler-insensitive DNP-GS uptake as percentage of control", "setting": "[1]; [7]", "result": 33.5, "unit": "%"}, {"measurement": "inhibition of DNP-GS uptake", "setting": "[1]; 100 μM compound", "result": "about 50%"}, {"measurement": "MgATP-dependent, uncoupler-insensitive DNP-GS uptake plus compound", "setting": "[2]; [6]", "result": "5.2 ± 0.3", "unit": "nmol/mg/10 minutes"}, {"measurement": "MgATP-dependent, uncoupler-insensitive DNP-GS uptake as percentage of control", "setting": "[2]; [7]", "result": 80.0, "unit": "%"}]}
{"smiles": "OCCS", "note": "[2-mercaptoethanol]", "values": [{"measurement": "inhibition of Cd2+ uptake by pretreatment of HMW-Cd.GS", "setting": "[3]; pretreatment with 2-mercaptoethanol", "result": "> 80", "unit": "%"}]}
{"smiles": "CC[C@]1(O)C[C@@H]2CN(CCc3c([nH]c4ccccc34)[C@@](C(=O)OC)(c3cc4c(cc3OC)N(C)[C@H]3[C@@](O)(C(=O)OC)[C@H](OC(C)=O)[C@]5(CC)C=CCN6CC[C@]43[C@@H]65)C2)C1", "note": "[Vinblastine]", "values": [{"measurement": "IC50", "setting": "[1]; [8]", "result": "89 µM and 88.8 µM"}, {"measurement": "IC50", "setting": "[2]; [8]", "result": "> 500", "unit": "µM"}]}
{"smiles": "N#CC(C#N)=NNc1ccc(OC(F)(F)F)cc1", "note": "[FCCP]", "values": [{"measurement": "DNP-GS uptake plus the compound indicated", "setting": "[1]", "result": "47.4 ± 1.7", "unit": "nmol/mg/10 minutes"}, {"measurement": "DNP-GS uptake as percentage of control plus the compound indicated", "setting": "[1]; dty165 vacuolar membrane vesicles, 10 min", "result": 61.0}, {"measurement": "DNP-GS uptake plus the compound indicated", "setting": "[2]", "result": "6.4 ± 0.3", "unit": "nmol/mg/10 minutes"}, {"measurement": "DNP-GS uptake as percentage of control plus the compound indicated", "setting": "[2]; dty167 vacuolar membrane vesicles, 10 min", "result": 41.8}, {"measurement": "109Cd.GS2 uptake plus addition", "setting": "[3]", "result": "62.2 ± 11.4", "unit": "nmol/mg/10 minutes"}, {"measurement": "decrease of MgATP-dependent Cd.GS2 uptake", "setting": "[3]; vacuolar membrane vesicles", "result": 22, "unit": "%"}, {"measurement": "109Cd.GS2 uptake as percentage of control", "setting": "[3]; [9]", "result": 58.8}, {"measurement": "109Cd.GS2 uptake plus addition", "setting": "[4]", "result": "10.2 ± 1.6", "unit": "nmol/mg/10 minutes"}, {"measurement": "109Cd.GS2 uptake as percentage of control", "setting": "[4]; [9]", "result": 59.0}]}
{"smiles": "COc1ccc2c(c1)OC1c3ccc(O)cc3OCC21", "note": "(stereo not shown) [medicarpin]", "values": [{"measurement": "uptake in the presence of MgATP", "setting": "[5]; 3 mM MgATP", "result": "16.7±3.6", "unit": "nmol/mg/20 minutes"}, {"measurement": "uptake in the absence of MgATP", "setting": "[5]; -MgATP", "result": "7.4±1.3", "unit": "nmol/mg/20 minutes"}]}
{"smiles": "N[C@@H](CCC(=O)N[C@@H](C[S][Cd][S]C[C@H](NC(=O)CC[C@H](N)C(=O)O)C(=O)NCC(=O)O)C(=O)NCC(=O)O)C(=O)O", "note": "[HMW-Cd.GS, bis(glutathionato)cadmium]", "values": [{"measurement": "Vmax for MgATP-dependent, uncoupler-insensitive Cd.GS2 uptake", "setting": "[3]", "result": "157.2±60.7", "unit": "nmol/mg/10 minutes"}, {"measurement": "109Cd.GS2 uptake, control", "setting": "[3]; 50 μM 109Cd.GS2, no addition", "result": "105.8 ± 12.4", "unit": "nmol/mg/10 minutes"}, {"measurement": "109Cd uptake of Mono-Q fraction", "setting": "[3]; [10]", "result": "66.3 ± 2.7", "unit": "nmol/mg/10 min"}, {"measurement": "109Cd uptake after 2-ME pretreatment", "setting": "[3]; [11]", "result": "11.9 ± 2.4", "unit": "nmol/mg/10 min"}, {"measurement": "Vmax for MgATP-dependent, uncoupler-insensitive Cd.GS2 uptake", "setting": "[3]; listed as Cd.GS2", "result": "157.2±30.4", "unit": "nmol/mg/10 minutes"}, {"measurement": "Km", "setting": "[3]; read-out: Km for MgATP-dependent, uncoupler-insensitive Cd.GS2 uptake", "result": "39.1 ± 14.1", "unit": "µM"}, {"measurement": "109Cd.GS2 uptake, control", "setting": "[4]; 50 μM 109Cd.GS2, no addition", "result": "17.3 ± 2.7", "unit": "nmol/mg/10 minutes"}, {"measurement": "109Cd uptake of Mono-Q fraction", "setting": "[4]; [10]", "result": "5.6 ± 2.6", "unit": "nmol/mg/10 min"}, {"measurement": "109Cd uptake after 2-ME pretreatment", "setting": "[4]; [11]", "result": "4.4 ± 3.0", "unit": "nmol/mg/10 min"}]}
